The record followed here is patent US9834558B2, “Substituted bridged urea analogs as sirtuin modulators” (GLAXOSMITHKLINE LLC, priority 2013, dated 2017).

Structures can show the parent of a compound that is named as a salt.

For this experiment, the target named is T1, SIRT1 (Homo sapiens, UniProt Q96EB6).
T1 sequence (Q96EB6 1-747): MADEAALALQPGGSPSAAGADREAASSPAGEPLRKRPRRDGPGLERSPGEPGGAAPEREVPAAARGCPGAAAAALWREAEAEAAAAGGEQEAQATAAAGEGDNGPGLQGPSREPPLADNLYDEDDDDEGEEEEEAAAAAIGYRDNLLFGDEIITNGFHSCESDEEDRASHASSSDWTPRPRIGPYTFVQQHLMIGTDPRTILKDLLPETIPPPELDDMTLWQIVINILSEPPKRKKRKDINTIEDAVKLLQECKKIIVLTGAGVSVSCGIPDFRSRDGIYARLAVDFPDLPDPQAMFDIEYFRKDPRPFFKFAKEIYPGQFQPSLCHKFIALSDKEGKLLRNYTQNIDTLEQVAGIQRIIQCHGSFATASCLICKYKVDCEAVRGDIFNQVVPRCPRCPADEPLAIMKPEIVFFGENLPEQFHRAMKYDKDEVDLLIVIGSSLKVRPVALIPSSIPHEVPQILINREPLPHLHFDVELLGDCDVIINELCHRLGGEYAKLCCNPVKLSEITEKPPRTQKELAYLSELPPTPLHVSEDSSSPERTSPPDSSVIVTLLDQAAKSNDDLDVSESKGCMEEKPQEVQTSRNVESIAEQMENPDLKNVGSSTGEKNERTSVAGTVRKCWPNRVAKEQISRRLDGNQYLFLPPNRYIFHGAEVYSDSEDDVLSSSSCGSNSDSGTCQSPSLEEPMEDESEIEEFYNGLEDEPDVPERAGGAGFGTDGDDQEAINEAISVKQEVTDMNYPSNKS
Nature of the experiment: Trp mass spectrometry assay of SIRT1 activation. Format: biochemical. The following applies: Trp peptide assay; for TRP Activity (EC1.5): EC1.5 = concentration that results in 150% activation of SIRT1; for Emax: maximum activity relative to control (100%), read-out: TRP MAX RESP (percent maximum fold activation). The procedure, abridged:
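N-terminal His-tagged human SIRT1 (10 nM, E. coli BL21(DE3)) with 0.5 μM Ac-RHKK(Ac)W-NH2 peptide and 120 μM βNAD+, 25 min at 25 °C in HEPES pH 7.5, formic acid stop. OAADPR or deacetylated peptide quantified by mass spectrometry; EC1.5 (50% activity increase over control) and Percent Maximum Activation reported.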

`O=C(Nc1ccccc1CCC(F)(F)F)N1c2nc(Cl)ccc2N2CC[C@H]1C2` [(9S)-5-chloro-N-[2-(3,3,3-trifluoropropyl)phenyl]-1,6,8-triazatricyclo[7.2.1.0 {2,7}]dodeca-2(7),3,5-triene-8-carboxamide]: the “TRP Activity (EC1.5)” value is “B (B (EC1.5 1-25 μM))” and the Emax is > 150%.

Consider `N#Cc1ccc2c(n1)N(C(=O)Nc1cnccn1)[C@H]1CCN2C1` [(9S)-5-cyano-N-(pyrazin-2-yl)-1,6,8-triazatricyclo[7.2.1.0 {2,7}]dodeca-2(7),3,5-triene-8-carboxamide], for which the “TRP Activity (EC1.5)” value is on record as “C (C (EC1.5>25 μM))” and the Emax was < 150%.

Consider `O=C(NC(CO)C(F)(F)F)c1ccc2c(n1)N(C(=O)Nc1ccccn1)[C@H]1CCN2C1` (stereo partly drawn) [(9S)-8-N-(pyridin-2-yl)-5-N-(1,1,1-trifluoro-3-hydroxypropan-2-yl)-1,6,8-triazatricyclo[7.2.1.0^{2,7}]dodeca-2(7),3,5-triene-5,8-dicarboxamide], for which the “TRP Activity (EC1.5)” value is recorded as “A (A (EC1.5<1 μM))” and the Emax is > 150%.

With `COCC(NC(=O)c1ccc2c(n1)N(C(=O)Nc1ccccn1)[C@H]1CCN2C1)C(F)(F)F` (stereo partly drawn) [(9S)-8-N-(pyridin-2-yl)-5-N-(1,1,1-trifluoro-3-methoxypropan-2-yl)-1,6,8-triazatricyclo[7.2.1.0^{2,7}]dodeca-2(7),3,5-triene-5,8-dicarboxamide], the “TRP Activity (EC1.5)” value is given as “A (A (EC1.5<1 μM))” and the Emax was > 150%.

With `O=C(NCC(F)(F)F)c1ccc2c(n1)N(C(=O)Nc1ccccn1)[C@H]1CCN2C1` [(9S)-8-N-(pyridin-2-yl)-5-N-(2,2,2-trifluoroethyl)-1,6,8-triazatricyclo[7.2.1.0 {2,7}]dodeca-2(7),3,5-triene-5,8-dicarboxamide], the “TRP Activity (EC1.5)” value is listed as “A (A (EC1.5<1 μM))” and the Emax was > 150%.

For the molecule `Cc1cc(-c2ccc3c(n2)N(C(=O)N2CCN(C)CC2)[C@H]2CCN3C2)ccn1` [(9S)-8-[(4-methylpiperazin-1-yl)carbonyl]-5-(2-methylpyridin-4-yl)-1,6,8-triazatricyclo[7.2.1.0 {2,7}]dodeca-2,4,6-triene], the “TRP Activity (EC1.5)” value was “C (C (EC1.5>25 μM))” and the Emax was < 150%.

In the case of `Cc1cc(-c2ccc3c(n2)N(C(=O)N2CCO[C@H](C)C2)[C@H]2CCN3C2)ccn1` [(9S)-8-{[(2R)-2-methylmorpholin-4-yl]carbonyl}-5-(2-methylpyridin-4-yl)-1,6,8-triazatricyclo[7.2.1.0 {2,7}]dodeca-2(7),3,5-triene hydrochloride], the “TRP Activity (EC1.5)” value was “C (C (EC1.5>25 μM))” and the Emax is < 150%.

Take `Cc1cc(-c2ccc3c(n2)N(C(=O)N2CCO[C@@H](C)C2)[C@H]2CCN3C2)ccn1` [(9S)-8-{[(2S)-2-methylmorpholin-4-yl]carbonyl}-5-(2-methylpyridin-4-yl)-1,6,8-triazatricyclo[7.2.1.0 {2,7}]dodeca-2(7),3,5-triene hydrochloride]: the “TRP Activity (EC1.5)” value is listed as “C (C (EC1.5>25 μM))” and the Emax was < 150%.

Take `Cc1cc(NC(=O)N2c3nc(-c4ccnc(C)c4)ccc3N3CC[C@H]2C3)ccn1` [(9S)-N,5-bis(2-methylpyridin-4-yl)-1,6,8-triazatricyclo[7.2.1.0 {2,7}]dodeca-2(7),3,5-triene-8-carboxamide]: the “TRP Activity (EC1.5)” value is listed as “B (B (EC1.5 1-25 μM))” and the Emax was > 150%.

For `Cc1cc(-c2ccc3c(n2)N(C(=O)Nc2cn(C)nn2)[C@H]2CCN3C2)ccn1` [(9S)-N-(1-methyl-1H-1,2,3-triazol-4-yl)-5-(2-methylpyridin-4-yl)-1,6,8-triazatricyclo[7.2.1.0^{2,7}]dodeca-2(7),3,5-triene-8-carboxamide], the “TRP Activity (EC1.5)” value was “B (B (EC1.5 1-25 μM))” and the Emax was > 150%.

On to `Cc1cc(-c2ccc3c(n2)N(C(=O)Nc2ncn(C)n2)[C@H]2CCN3C2)ccn1` [(9S)-N-(1-methyl-1H-1,2,4-triazol-3-yl)-5-(2-methylpyridin-4-yl)-1,6,8-triazatricyclo[7.2.1.0 {2,7}]dodeca-2(7),3,5-triene-8-carboxamide], for which the “TRP Activity (EC1.5)” value is “C (C (EC1.5>25 μM))” and the Emax was > 150%.

As to `Cc1cc(-c2ccc3c(n2)N(C(=O)Nc2ccn(C)n2)[C@H]2CCN3C2)ccn1` [(9S)-N-(1-methyl-1H-pyrazol-3-yl)-5-(2-methylpyridin-4-yl)-1,6,8-triazatricyclo[7.2.1.0 {2,7}]dodeca-2,4,6-triene-8-carboxamide], the “TRP Activity (EC1.5)” value is “B (B (EC1.5 1-25 μM))” and the Emax is > 150%.

In the case of `Cc1cc(-c2ccc3c(n2)N(C(=O)Nc2cnn(C)c2)[C@H]2CCCN3C2)ccn1` [(9S)-N-(1-methyl-1H-pyrazol-4-yl)-5-(2-methylpyridin-4-yl)-1,6,8-triazatricyclo[7.3.1.0 {2,7}]trideca-2(7),3,5-triene-8-carboxamide], the “TRP Activity (EC1.5)” value was “B (B (EC1.5 1-25 μM))” and the Emax is > 150%.

With `Cc1ccc(-c2ccc3c(n2)N(C(=O)NC2CCN(C)CC2)[C@H]2CCN3C2)cn1` [(9S)-N-(1-methylpiperidin-4-yl)-5-(6-methylpyridin-3-yl)-1,6,8-triazatricyclo[7.2.1.0^{2,7}]dodeca-2(7),3,5-triene-8-carboxamide], the “TRP Activity (EC1.5)” value is “C (C (EC1.5>25 μM))” and the Emax was < 150%.

On to `Cc1cc(-c2ccc3c(n2)N(C(=O)Nc2ccc4[nH]ncc4c2)[C@H]2CCN3C2)ccn1` [(9S)-N-(1H-indazol-5-yl)-5-(2-methylpyridin-4-yl)-1,6,8-triazatricyclo[7.2.1.0 {2,7}]dodeca-2(7),3,5-triene-8-carboxamide], for which the “TRP Activity (EC1.5)” value is on record as “A (A (EC1.5<1 μM))” and the Emax is > 150%.

Regarding `Cc1ccc(-c2ccc3c(n2)N(C(=O)NCC(C)(C)C)[C@H]2CCN3C2)cn1` [(9S)-N-(2,2-dimethylpropyl)-5-(6-methylpyridin-3-yl)-1,6,8-triazatricyclo[7.2.1.0 {2,7}]dodeca-2(7),3,5-triene-8-carboxamide], the “TRP Activity (EC1.5)” value was “C (C (EC1.5>25 μM))” and the Emax is < 150%.

As for `Cc1cc(-c2ccc3c(n2)N(C(=O)Nc2ccc4c(c2)OCCO4)[C@H]2CCN3C2)ccn1` [(9S)-N-(2,3-dihydro-1,4-benzodioxin-6-yl)-5-(2-methylpyridin-4-yl)-1,6,8-triazatricyclo[7.2.1.0 {2,7}]dodeca-2(7),3,5-triene-8-carboxamide], the “TRP Activity (EC1.5)” value was “B (B (EC1.5 1-25 μM))” and the Emax was > 150%.

As for `Cc1cc(-c2ccc3c(n2)N(C(=O)Nc2ccc4nn(C)cc4c2)[C@H]2CCCN3C2)ccn1` [(9S)-N-(2-methyl-2H-indazol-5-yl)-5-(2-methylpyridin-4-yl)-1,6,8-triazatricyclo[7.3.1.0 {2,7}]trideca-2,4,6-triene-8-carboxamide], the “TRP Activity (EC1.5)” value was “A (A (EC1.5<1 μM))” and the Emax was > 150%.

As to `Cc1cc(-c2ccc3c(n2)N(C(=O)Nc2ccc4c(c2)OCO4)[C@H]2CCN3C2)ccn1` [(9S)-N-(2H-1,3-benzodioxo1-5-yl)-5-(2-methylpyridin-4-yl)-1,6,8-triazatricyclo[7.2.1.0 {2,7}]dodeca-2(7),3,5-triene-8-carboxamide], the “TRP Activity (EC1.5)” value is on record as “A (A (EC1.5<1 μM))” and the Emax is > 150%.

With `Cc1ccc(-c2ccc3c(n2)N(C(=O)NC2CC(F)(F)C2)[C@H]2CCN3C2)cn1` [(9S)-N-(3,3-difluorocyclobutyl)-5-(6-methylpyridin-3-yl)-1,6,8-triazatricyclo[7.2.1.0 {2,7}]dodeca-2(7),3,5-triene-8-carboxamide], the “TRP Activity (EC1.5)” value is recorded as “B (B (EC1.5 1-25 μM))” and the Emax is > 150%.

In the case of `Cc1cc(-c2ccc3c(n2)N(C(=O)Nc2ccc4c(c2)OCCCO4)[C@H]2CCN3C2)ccn1` [(9S)-N-(3,4-dihydro-2H-1,5-benzodioxepin-7-yl)-5-(2-methylpyridin-4-yl)-1,6,8-triazatricyclo[7.2.1.0 {2,7}]dodeca-2,4,6-triene-8-carboxamide], the “TRP Activity (EC1.5)” value is on record as “A (A (EC1.5<1 μM))” and the Emax was > 150%.

Regarding `Cc1cc(-c2ccc3c(n2)N(C(=O)Nc2nccnc2F)[C@H]2CCN3C2)ccn1` [(9S)-N-(3-fluoropyrazin-2-yl)-5-(2-methylpyridin-4-yl)-1,6,8-triazatricyclo[7.2.1.0^{2,7}]dodeca-2,4,6-triene-8-carboxamide], the “TRP Activity (EC1.5)” value is recorded as “B (B (EC1.5 1-25 μM))” and the Emax is > 150%.
